The source of these data is patent US20120077794A1, “BIS-PYRIDYLPYRIDONES AS MELANIN-CONCENTRATING HORMONE RECEPTOR 1 ANTAGONISTS” (GLAXSMITHKLINE LLC, priority 2009, published 2012).

Structures are written as SMILES. Like-named read-outs stand apart in the source and are kept apart here.

For the test, the target named is T1, hMCHR1 (Homo sapiens, UniProt Q99705).
T1 construct: expressed in transfected cells; host or cells: HEK293
Kind of test: MCHR1 pIC50 Determination FLIPR Assay. It is filed as cell-based. Here is the method:
MCHR1 pIC50 Determination FLIPR™ Assay: HEK293 cells stably transfected with hMCHR1 were propagated as adherent cultures at 37° C. in a humidified incubator. Cells were split 1:8 at 90% confluency two times per week. New cell stocks were recovered from storage every two months. Cells were plated in black 384-well plates (Greiner) 24 hours prior to assay at 15,000 cells/well in 50 μL DMEM/F12, 10% FBS, 2 mM I-glutamine. Compounds to be profiled were prepared by making a stock solution at 3×10^−3M in 100% DMSO. The stock solutions were serially diluted 1:4 in 100% DMSO using JANUS (PerkinElmer) liquid handling instrument to allow for an 11 point curve in singlicate. At the time of the assay, the media was removed from the cell plate by aspiration, followed by the addition of 20 μL of loading buffer (Calcium 4 Kit, […]). Following 50 min incubation at 37° C., 10 μL of compound was added to the plates via the FLIPR™ instrument ([…]). The plates were incubated at room temperature for 15 minutes along with an MCH peptide agonist challenge plate. On the FLIPR™, a basal response was collected over 10 seconds followed by the addition of 10 μL of MCH challenge concentration at 4XEC50. Data was collected over 4 minutes and subjected to a nonlinear regression analysis curve fitting program to generate pIC50s.

[1] abbreviates: HEK293 cells stably transfected with hMCHR1, MCH challenge at 4XEC50, at least one experimental run, read-out: IC50 in the FLIPR assay.

T1 sequence (Q99705 whole entry): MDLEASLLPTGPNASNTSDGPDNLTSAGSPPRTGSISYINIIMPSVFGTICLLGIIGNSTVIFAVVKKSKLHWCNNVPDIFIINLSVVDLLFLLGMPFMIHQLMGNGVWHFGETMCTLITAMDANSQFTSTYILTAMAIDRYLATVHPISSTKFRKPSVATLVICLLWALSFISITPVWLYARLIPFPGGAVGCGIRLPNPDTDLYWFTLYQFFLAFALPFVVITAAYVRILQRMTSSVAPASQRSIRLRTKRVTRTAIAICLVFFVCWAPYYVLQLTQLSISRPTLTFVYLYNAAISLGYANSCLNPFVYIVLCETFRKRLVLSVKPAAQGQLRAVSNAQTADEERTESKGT

For `O=c1cc(OCc2ccc(Cl)cn2)ccn1-c1ccc(N2CCC[C@@H]2CO)nc1` [Example 4, 4-{[(5-chloro-2-pyridinyl)methyl]oxy}-6′-{[(2R)-hydroxymethyl]pyrrolidin-1-yl}-2H-1,3′-bipyridin-2-one], the IC50 under setting [1] amounted to 48 nM. Same read-out and setting: then `O=c1cc(OCc2ccc(Cl)cn2)ccn1-c1ccc(N2CCCNCC2)nc1` [Example 13], with 52 nM. The same measure, in the same setting: then `CC(C)[C@H]1CN(c2ccc(-n3ccc(OCc4ccc(Cl)cn4)cc3=O)cn2)CCN1C` [Example 19], with 53 nM. Consider `O=c1cc(OCc2ccc(Cl)cn2)ccn1-c1ccc(N2CCNCC2)nc1` [Example 2, 4-{[(5-chloro-2-pyridinyl)methyl]oxy}-6′-(piperazin-1-yl)-2H-1,3′-bipyridin-2-one], for which the IC50 (quantity and assay not stated, read-out: unlabelled value in the heading of Example 2) was 88 nM.
